ChEMBL document CHEMBL1125699, “Development of a novel series of (2-quinolinylmethoxy)phenyl-containing compounds as high-affinity leukotriene D4 receptor antagonists. 4. Addition of chromone moiety enhances leukotriene D4 receptor binding affinity” (J Med Chem, 1991)

molecular target: T1, Cysteinyl leukotriene receptor 1 (Cavia porcellus) (UniProt Q2NNR5); assay: Radioligand binding affinity against LTD4 receptor in guinea pig lung membranes at the concentration of 30 nM.; assay type: cell membranes; details: Membrane
T1 sequence (whole entry): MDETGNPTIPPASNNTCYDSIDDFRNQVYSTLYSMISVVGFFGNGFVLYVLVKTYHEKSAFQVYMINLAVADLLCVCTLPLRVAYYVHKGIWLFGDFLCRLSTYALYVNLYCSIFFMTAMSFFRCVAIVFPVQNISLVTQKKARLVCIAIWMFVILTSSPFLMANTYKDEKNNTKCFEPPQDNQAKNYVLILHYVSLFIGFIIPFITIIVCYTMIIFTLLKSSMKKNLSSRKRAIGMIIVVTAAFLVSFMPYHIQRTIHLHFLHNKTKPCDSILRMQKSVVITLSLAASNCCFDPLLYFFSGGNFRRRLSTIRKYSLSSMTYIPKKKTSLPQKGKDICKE

inhibition | Structure (SMILES)
22% | CCCc1c(OCc2cccc(OCc3ccc4ccccc4n3)c2)ccc2c1OC(C(=O)O)CC2=O (stereo not given)

molecular target: T2, Cysteinyl leukotriene receptor 1 (Cavia porcellus, UniProt Q2NNR5); assay: Binding affinity against LTD4 receptor in guinea pig lung membranes.; assay type: cell membranes; details: not given
T2 sequence (Q2NNR5 whole entry): T1 sequence (whole entry)

Ki | Structure (SMILES)
1.2 nM | CC1(CCC(=O)O)CC(=O)c2ccc(OCc3cccc(OCc4ccc5ccccc5n4)c3)cc2O1 (stereo not given)
18 nM | O=C1CC(C(=O)O)Oc2ccc(Cl)c(OCc3ccc(OCc4ccc5ccccc5n4)cc3)c21 (stereo not given)
15 nM | O=C1CC(c2nnn[nH]2)Oc2c(COc3ccc(OCc4ccc5ccccc5n4)cc3)cccc21 (stereo not given)
30 nM | CCOC(=O)C1CC(=O)c2ccc(COc3cccc(OCc4ccc5ccccc5n4)c3)cc2O1 (stereo not given)
2.1 nM | O=C1CC(C(=O)O)Oc2cc(OCc3cccc(OCc4ccc5ccccc5n4)c3)ccc21 (stereo not given)
6.3 nM | O=C1CC(C(=O)O)Oc2cc(COc3ccc(OCc4ccc5ccccc5n4)cc3)ccc21 (stereo not given)
1.3 nM | O=C1CC(C(=O)O)Oc2ccc(OCc3cccc(OCc4ccc5ccccc5n4)c3)cc21 (stereo not given)
13 nM | O=C1CC(C(=O)O)Oc2c(COc3ccc(OCc4ccc5ccccc5n4)cc3)cccc21 (stereo not given)

Continued, molecule first:

Structure (SMILES) | Ki
O=C1CC(c2nnn[nH]2)Oc2cc(CCc3cccc(OCc4ccc5ccccc5n4)c3)ccc21 (stereo not given) | 0.3 nM
O=C1CC(c2nnn[nH]2)Oc2cc(COc3cccc(OCc4ccc5ccccc5n4)c3)ccc21 (stereo not given) | 0.12 nM
O=C(Nc1cccc2c1OC(c1nnn[nH]1)CC2=O)c1ccc(OCc2ccc3ccccc3n2)cc1 (stereo not given) | 1.1 nM
O=C1CC(c2nnn[nH]2)Oc2cc(OCc3cccc(OCc4ccc5ccccc5n4)c3)ccc21 (stereo not given) | 0.1 nM
O=C1CC(c2nnn[nH]2)Oc2cc(/C=C/c3cccc(OCc4ccc5ccccc5n4)c3)ccc21 (stereo not given) | 2.5 nM
O=C(O)c1cc(=O)c2ccc(OCc3ccc4ccccc4n3)cc2o1 | 7000 nM
